From US20080027098A1, “Derivatives of alpha-phenylthiocarboxylic and alpha-phenyloxy-carboxylic acids useful for the treatment of diseases responding to PPARalpha activation” (SIGMA-TAU INDUSTRIE FARMACEUTICHE RIUNITE S.p.A., priority 2002, published 2008) come the findings set out here.

Structures are written as SMILES. Marks after values point to notes of the source that are not given here.

In one data set the target is T1, Gal4DBD/PPARαLBD (Homo sapiens, UniProt Q07869).
T1 construct: expressed in transfected cells; host or cells: COS-7 (monkey kidney fibroblasts)
T1 sequence (Q07869 239-466 limits assumed): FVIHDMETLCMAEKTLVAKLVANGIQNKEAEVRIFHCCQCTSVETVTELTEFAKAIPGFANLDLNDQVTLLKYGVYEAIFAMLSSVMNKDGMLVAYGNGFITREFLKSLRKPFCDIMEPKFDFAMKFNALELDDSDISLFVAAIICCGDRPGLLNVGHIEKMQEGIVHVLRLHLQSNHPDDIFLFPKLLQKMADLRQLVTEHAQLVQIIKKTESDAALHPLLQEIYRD
As to the kind of experiment: Transient transfection of COS-7 cells, Gal4DBD/PPARαLBD transactivation, CAT reporter (II method). In kind it is cell-based. The note with it: for activation at 2 µM / activation at 20 µM / activation at 100 µM: read-out: percentage activation of the CAT reporter gene compared to reference compound WY-14.643 2 μM taken as 100%. The text has this:
Transient Transfection of Eukaryotic Cells to Evaluate the Agonist Activity of PPARα Ligands (II Method)
An alternative transactivation system, which differs mainly in the way the receptor is positioned onto the DNA, and depending on how the event of ligand binding is translated into transcriptional activation, was used.
In this model eukaryotic cells were transiently transfected with an expression vector encoding a fusion protein between the DNA binding domain (DBD) of the yeast Gal4 transcription factor and the ligand binding domain (LBD) of the PPARα (Gal4DBD/PPARαLBD). The reporter vector containing 5 copies of the high affinity binding site for Gal4 (named UAS, upstream activating sequence) upstream of a strong viral promoter linked to the reporter gene chloramphenicol acetyltransferase (CAT), was co-transfected. This model offered some advantages, the most important of which was the absence of interference by endogenous receptors.
Besides expression and reporter vectors, cells were transfected with a control vector pCH110 that encodes the β-galactosidase enzyme to correct for differences in transfection efficiency.
A monkey kidney fibroblast cell line (COS-7) was used. Cells were co-transfected with the plasmid carrying the gene-reporter, the expression plasmid encoding the fusion protein Gal4DBD/PPARαLBD, and the control vector pCH110. Cells were then treated with increasing concentrations of test compounds and the CAT activity was measured. Untreated cells were used as control.
Monkey kidney fibroblasts (COS-7) were routinely grown in DMEM (Dulbecco's modified Eagle's medium) supplemented with 3.7 g/l sodium bicarbonate, 4 mM L-glutamine, 4.5 g/l glucose, 1 mM sodium piruvate and 10% v/v foetal bovine serum, in the presence of streptomycin 100 μg/ml and penicillin 100 U/ml.
COS-7 cells were transiently transfected by using the multi-component lipid-based FuGENE6 Transfection Reagent that complexes with and transports DNA into the cells during transfection. Cells were seeded at 1.2×10^5 cells/well, in 12-well plates, and cultured overnight at 37° C. in a 5% v/v carbon dioxide atmosphere. Two hours before transfection the culture medium was replaced by fresh serum-free medium and then transfection was performed with FuGENE6 Transfection Reagent according to the instructions of the manufacturer. Briefly, the transfection mixture containing (for each well) 0.8 μg of the expression vector, 1.6 μg of the reporter vector, 0.8 μg of the control vector and 9 μl of FuGENE6 Transfection Reagent was added directly to the cells in the presence of serum-free medium. After 5 hours the transfection medium was replaced by 1 ml of the complete culture medium with or without the test molecules at 3 different concentrations (2, 20 and 100 μM). 2 μM Wy-14,643, a known PPARα ligand, was used as positive control.
After 48 h, the cells were washed twice with 1 ml phosphate buffer (PBS) and then harvested by scraping them in TEN buffer (Tris [hydroxymethyl] aminomethane 10 mM pH 8, ethylenediamine tetraacetic acid 1 mM, pH 8, sodium chloride 0.1 M). Following centrifugation at room temperature, for 3 min at 1000 revs per minute (rpm), cells were resuspended with 60 μl of Lysis buffer (0.25M Tris-HCl, pH 8) and lysed by three rapid freeze/thaw cycles (three 5-minute cycles). Cell debris was then removed by centrifugating at 4° C., for 15 min at 15.000 revs per minute (rpm),. Glycerol (final 10% v/v) and β-mercaptoethanol (final 5 mM) were then added (final volume 75 μl) and the cell extracts were stored at −80° C. until assayed.
The CAT activity assay was performed as follows: 20 μl of cell lysate (pre-warmed at 65° C. for 10 min to deactivate internal deacetylase enzymatic activity) were added to 10 μl of 3.5 mg/ml n-butirryl-CoA, 5 μl ([…]) of [14C]-chloramphenicol and 65 μl of distilled H20 and incubated 2 h at 37° C. Reaction was blocked by adding 200 μl of the solution xylene/2,6,10,14 tetramethyl-pentadecane (in a 1:2 v/v mixture). […]
For orientation: A reporter such as luciferase makes a cellular process visible.

In the next data set the test system is db/db mice. As to the kind of experiment: Increase in HDL-cholesterol levels in db/db mice. The following applies: for Increase in HDL-cholesterol levels (%): further experiment, oral twice daily 14 days, dose equimolar to 25 mg/kg of ST2195, 8 hours after last treatment. In kind it is in vivo. The procedure:
Increase in HDL-Cholesterol Levels in db/db Mice
In this experiment db/db mice were used in which PPARα expression is above normal (Memon et al., Endocrinology 2000, 4021-4031) and HDL-cholesterol levels are substantially elevated (Silver et al., J Biol Chem 1999, 274: 4140-4146).
The C57BL[KsJ db/db mice were acclimatised for one week in standard conditions (22±2° C.; 55±15% humidity; 15-20 air changes/hour; 12 hours light/darkness cycle with light from 7.00 a.m. to 7 p.m.) with a standard 4 RF21 diet (Mucedola). Blood samples were taken in post-absorption conditions (fasting from 8.30 a.m. to 4.30 p.m.) from the caudal vein with the aid of a Jelco 22G catheter (Johnson and Johnson). Glucose, insulin, triglyceride, cholesterol, free fatty acid and urea levels were checked in plasma for a homogeneous distribution of the mice in the treatment groups.
At the beginning of treatment the animals' body weight was checked and arrangements were made to monitor their water and feed consumption. […]
The compound tested, obtained as described in example 4 (ST 1929) was administered at the dose of 24 mg/kg in 10 ml/kg of vehicle (1% CMC containing Tween 80 0.5% in deionized H2O).
The other compounds tested were also administered at a dose equivalent to that in example 4.
Ciprofibrate, a known PPARα agonist (Varanasi et al., J Biol Chem 1996, 271: 2147-2155; Latruffe et al. Cell Biochem Biophys 2000, 32 Spring: 213-220) was administered at the dose of 20 mg/kg (Dwivedi et al., Toxicol Pathol 1989, 17: 16-26; Qi et al., Proc Natl Acad Sci USA 1999, 96: 1585-1590).
The animals were sacrificed (by decapitation) in conditions of post-absorption (fasting from 9.30 a.m. to 4.30 p.m.) 7 hours after the last treatment. The levels of a number of important lipid and carbohydrate metabolism parameters were determined in the serum.
The HDL-cholesterol levels were measured by treating the serum with phosphotungstic-acid-based precipitating reagent (ABX Diagnostics) which removes the chylomicrons, very low density and low density lipoproteins and determining the HDL-cholesterol levels in the supernatant with the aid of the Cholesterol Kit (ABX Diagnostics) and the Cobas Mira S Autoanalyzer (Roche).
In a further experiment, where the above reported ST2195 was used as reference compound, db/db mice were treated orally twice daily (8.30 a.m. and 6.30 p.m.) for 14 days with the test items (equimolar to 25 mg/kg of ST2 195) giving the following results reported in Table 3: […]

On to `CC(C)(Sc1ccc(OCCc2ccc(Cl)cc2)cc1)C(=O)O` [ST 2505, 2-[4-[2-(4-chlorophenyl)ethoxy]phenylthio]-2-methylpropanoic acid], for which the melting point (as a rule, the temperature of the solid-liquid transition) was in the range of 87 to 88 °C.
The same measure, in the same setting: to `COC(=O)C(C)(C)Sc1ccc(OCCc2ccc3ccccc3c2)cc1` [ST2011, methyl 2-[4-[2-(2-naphthyl)ethoxy]phenyl-thio]isobutyrate] belongs 56 to 57 °C.
In turn, `COC(=O)C(C)(C)Sc1ccc(O)cc1` [ST1923, methyl 2-(4-hydroxyphenylthio)isobutyrate] displayed a melting point of 110 to 112 °C.
Turning to `COC(=O)C(C)(C)Sc1cccc(OCCc2ccc(Cl)cc2Cl)c1` [ST2534, methyl 2-[3-(2-(2,4-dichloro-phenyl)ethoxy)phenylthio]isobutyrate], the activation at 2 µM at Gal4DBD/PPARαLBD (2 μM) came out at 113%. Besides, on Gal4DBD/PPARαLBD (20 μM), the activation at 20 µM amounted to 285%. At Gal4DBD/PPARαLBD (100 μM), the activation at 100 µM is 421%. Moreover, the “Increase in HDL-cholesterol levels (%)” value with db/db mice is “+61Δ %”.
`COC(=O)C(C)(C)Sc1ccc(OCCn2ccc3cc(OCc4ccccc4)ccc32)cc1` [ST2562, methyl 2-[4-[2-(1-(5-benzyloxy)indolyl)ethoxy]phenyl-thio]isobutyrate]: the activation at 2 µM at Gal4DBD/PPARαLBD (2 μM) amounted to 139%. Moreover, at Gal4DBD/PPARαLBD (20 μM), the activation at 20 µM came to 291%. In addition, at Gal4DBD/PPARαLBD (100 μM), the activation at 100 µM is 249%.
`CC(C)(Oc1ccc(CCNC(=O)c2ccc(Cl)cc2)cc1)C(=O)O` [Bezafibrate, reference compound]: in the data set with db/db mice (24.8 mg/kg, 25 days), the “Increase in HDL/cholesterol levels (%)” value is given as “+14%”.
For `COC(=O)C(C)(C)Sc1cccc(OCCn2c3ccccc3c3ccccc32)c1` [ST2365, methyl 2-[3-(2-(carbazol-9-yl)ethoxy)phenyl-thio]isobutyrate], the melting point lay within 101 to 103 °C.
Same read-out and setting: then `COC(=O)C(C)(C)Sc1ccc(OCCn2c3ccccc3c3ccccc32)cc1` [ST2387, methyl 2-[4-(2-(carbazol-9-yl)ethoxy)phenyl-thio]isobutyrate], with 72 to 74 °C.
In the case of `CC(C)(Oc1ccc(C2CC2(Cl)Cl)cc1)C(=O)O` (stereo not drawn) [Ciprofibrate, reference compound], the “Increase in HDL/cholesterol levels (%)” value with db/db mice (oral twice daily, 20 mg/kg, 14 days) is given as “+52 ▴ %”.
With `COc1ccc2c(ccn2CCOc2ccc(SC(C)(C)C(=O)O)cc2)c1` [ST2733, 2-[4-[2-(1-(5-methoxy)indolyl)ethoxy]phenyl-thio]isobutyric acid], the activation at 2 µM at Gal4DBD/PPARαLBD (2 μM) came out at 77.2%. Further, the activation at 20 µM at Gal4DBD/PPARαLBD (20 μM) turned out to be 193%. Also, the activation at 100 µM at Gal4DBD/PPARαLBD (100 μM) amounted to 239%. For the same molecule, in the data set with db/db mice (second experiment, 26.4 mg/kg, 16 days), the “Increase in HDL/cholesterol levels (%)” value was “+70[…] %”.
For `CC(C)(Sc1ccc(OCCn2ccc3ccccc32)cc1)C(=O)O` [ST2622, 2-[4-[2-(1-indolyl)ethoxy]phenyl-thio]-isobutyric acid], on Gal4DBD/PPARαLBD (2 μM), the activation at 2 µM was determined as 105%. The activation at 20 µM on Gal4DBD/PPARαLBD (20 μM) came out at 231%. Further, the activation at 100 µM at Gal4DBD/PPARαLBD (100 μM) came to 311%. Also, in the data set with db/db mice, the “Increase in HDL-cholesterol levels (%)” value is “+54Δ %”.
As for `CC(C)(Sc1cccc(OCCc2ccc(Cl)cc2Cl)c1)C(=O)O` [ST2653, 2-[3-(2-(2,4-dichlorophenyl)ethoxy)phenyl-thio]-2-isobutyric acid], on Gal4DBD/PPARαLBD (2 μM), the activation at 2 µM worked out at 132%. Also, the activation at 20 µM on Gal4DBD/PPARαLBD (20 μM) came to 199%. Moreover, the activation at 100 µM on Gal4DBD/PPARαLBD (100 μM) was found to be 204%.
`COC(=O)C(C)(C)Sc1ccc(OCCc2ccc(Cl)cc2)cc1` [ST1929]: the “Increase in HDL/cholesterol levels (%)” value with db/db mice (oral twice daily, 24 mg/kg, 10 days) is listed as “+80 ▴ %”.
With `COC(=O)C(C)(C)Sc1cccc(OCCc2ccc3ccccc3c2)c1` [ST2167, methyl 2-[3-[2-(2-naphthyl)ethoxy]phenyl-thio]isobutyrate], the activation at 2 µM at Gal4DBD/PPARαLBD (2 μM) amounted to 98.1%. Besides, the activation at 20 µM at Gal4DBD/PPARαLBD (20 μM) stood at 360%. The activation at 100 µM at Gal4DBD/PPARαLBD (100 μM) is 463%. For the same molecule, the “Increase in HDL/cholesterol levels (%)” value with db/db mice (26.1 mg/kg, 25 days) is on record as “+29ρ %”.
For the molecule `COC(=O)C(C)(C)Sc1ccc(OCCn2ccc3cc(OC)ccc32)cc1` [ST2577, methyl 2-[4-[2-(1-(5-methoxy)indolyl)ethoxy]phenyl-thio]isobutyrate], the activation at 2 µM on Gal4DBD/PPARαLBD (2 μM) was determined as 98.6%. Besides, the activation at 20 µM at Gal4DBD/PPARαLBD (20 μM) is 269%. The activation at 100 µM at Gal4DBD/PPARαLBD (100 μM) came to 255%.
`COC(=O)C(C)(C)Sc1ccc(OCCn2ccc3ccccc32)cc1` [ST1983]: the “percentage activation of the CAT reporter gene compared to reference compound WY-14.643 2 μM taken as 100%” value amounted to 150% at Gal4DBD/PPARαLBD (2 μM), 391.2% on Gal4DBD/PPARαLBD (20 μM) and 1372% on Gal4DBD/PPARαLBD (100 μM). Further, the “Increase in HDL-cholesterol levels (%)” value in the data set on db/db mice is given as “+69Δ %”.
`CC(C)(Sc1ccc(OCCn2ccc3cc(OCc4ccccc4)ccc32)cc1)C(=O)O` [ST2740, 2-[4-[2-(1-(5-benzyloxy)indolyl)ethoxy]phenyl-thio]isobutyric acid]: the activation at 2 µM on Gal4DBD/PPARαLBD (2 μM) came out at 150%. For the same molecule, at Gal4DBD/PPARαLBD (20 μM), the activation at 20 µM stood at 177%. Besides, the activation at 100 µM on Gal4DBD/PPARαLBD (100 μM) was 115%.
With `COC(=O)C(C)(C)Sc1cccc(OCCc2ccc(Cl)cc2)c1` [ST2195, methyl 2-[3-[2-(4-chlorophenyl)ethoxy]phenyl-thio]isobutyrate], in the data set on db/db mice (25.0 mg/kg, 25 days), the “Increase in HDL/cholesterol levels (%)” value is given as “+20ρ %”. Also, in the data set with db/db mice, the “Increase in HDL-cholesterol levels (%)” value was “+67Δ %”.
